Laboratory results published in patent US20210078988A1, “MODULATORS OF INDOLEAMINE 2,3-DIOXYGENASE” (GLAXOSMITHKLINE INTELLECTUAL PROPERTY DEVELOPMENT LIMITED, priority 2017, published 2021).

Each compound was assayed against T1, indoleamine 2, 3-dioxygenase (IDO1) (Homo sapiens, UniProt P14902) (assay: PBMC IDO1 assay (kynurenine detection via mass spectrometry)). Settings: human PBMC stimulated with IFN-γ and LPS, 2 days, kynurenine by mass spectrometry; read-out: IDO1 PBMC pIC50 (converted).
T1 construct: human peripheral blood mononuclear cells (PBMC) (PB003F; host or cells: human PBMC stimulated with IFN-gamma and LPS
T1 sequence (P14902 whole entry): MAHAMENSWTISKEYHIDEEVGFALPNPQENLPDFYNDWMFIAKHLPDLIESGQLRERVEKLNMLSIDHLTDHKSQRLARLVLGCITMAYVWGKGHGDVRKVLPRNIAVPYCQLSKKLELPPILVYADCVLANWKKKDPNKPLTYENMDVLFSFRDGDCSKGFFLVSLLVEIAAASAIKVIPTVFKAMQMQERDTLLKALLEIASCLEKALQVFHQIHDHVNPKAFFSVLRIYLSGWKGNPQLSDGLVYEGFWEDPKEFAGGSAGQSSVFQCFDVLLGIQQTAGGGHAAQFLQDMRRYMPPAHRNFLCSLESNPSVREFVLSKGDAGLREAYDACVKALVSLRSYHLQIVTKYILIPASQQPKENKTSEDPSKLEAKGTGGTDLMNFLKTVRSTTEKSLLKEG
Type: cell-based
Protocol: Compounds of the present invention were tested via high-throughput cellular assays utilizing detection of kynurenine via mass spectrometry and cytotoxicity as end-points. For the mass spectrometry and cytotoxicity assays, human peripheral blood mononuclear cells (PBMC) (PB003F; AIICells®, Alameda, Calif.) were stimulated with human interferon-γ (IFN-γ) (Sigma-Aldrich Corporation, St. Louis, Mo.) and lipopolysaccharide from Salmonella minnesota (LPS) (Invivogen, San Diego, Calif.) to induce the expression of indoleamine 2, 3-dioxygenase (IDO1). Compounds with IDO1 inhibitory properties decreased the amount of kynurenine produced by the cells via the tryptophan catabolic pathway. Cellular toxicity due to the effect of compound treatment was measured using CellTiter-Glo® reagent (CTG) (Promega Corporation, Madison, Wis.), which is based on luminescent detection of ATP, an indicator of metabolically active cells.
In preparation for the assays, test compounds were serially diluted 3-fold in DMSO from a typical top concentration of 5 mM and plated at 0.5 μL in 384-well, polystyrene, clear bottom, tissue culture treated plates with lids (Greiner Bio-One, Kremsmunster, Austria) to generate 11-point dose response curves. Low control wells (0% kynurenine or 100% cytotoxicity) contained either 0.5 μL of DMSO in the presence of unstimulated (-IFN-γ/-LPS) PBMCs for the mass spectrometry assay or 0.5 μL of DMSO in the absence of cells for the cytotoxicity assay, and high control wells (100% kynurenine or 0% cytotoxicity) contained 0.5 μL of DMSO in the presence of stimulated (+IFN-γ/+LPS) PBMCs for both the mass spectrometry and cytotoxicity assays.
Frozen stocks of PBMCs were washed and recovered in RPMI 1640 medium (Thermo Fisher Scientific, Inc., Waltham, Mass.) supplemented with 10% v/v heat-inactivated fetal bovine serum (FBS) (Thermo Fisher Scientific, Inc., Waltham, Mass.), and 1× penicillin-streptomycin antibiotic solution (Thermo Fisher Scientific, Inc., Waltham, Mass.). The cells were diluted to 1,000,000 cells/mL in the supplemented RPMI 1640 medium. 50 μL of either the cell suspension, for the mass spectrometry assay, or medium alone, for the cytotoxicity assay, were added to the low control wells, on the previously prepared 384-well compound plates, resulting in 50,000 cells/well or 0 cells/well respectively. IFN-γ and LPS were added to the remaining cell suspension at final concentrations of 100 ng/ml and 50 ng/ml respectively, and 50 μL of the stimulated cells were added to all remaining wells on the 384-well compound plates. The plates, with lids, were then placed in a 37° C., 5% CO2 humidified incubator for 2 days.
Following incubation, the 384-well plates were removed from the incubator and allowed to equilibrate to room temperature for 30 minutes. For the cytotoxicity assay, CellTiter-Glo® was prepared according to the manufacturer's instructions, and 40 μL were added to each plate well. After a twenty minute incubation at room temperature, luminescence was read on an EnVision® Multilabel Reader (PerkinElmer Inc., Waltham, Mass.). For the mass spectrometry assay, 10 μL of supernatant from each well of the compound-treated plates were added to 40 μL of acetonitrile, containing 10 μM of an internal standard for normalization, in 384-well, polypropylene, V-bottom plates (Greiner Bio-One, Kremsmunster, Austria) to extract the organic analytes. Following centrifugation at 2000 rpm for 10 minutes, 10 μL from each well of the acetonitrile extraction plates were added to 90 μL of sterile, distilled H2O in 384-well, polypropylene, V-bottom plates for analysis of kynurenine and the internal standard on the RapidFire 300 (Agilent Technologies, Santa Clara, Calif.) and 4000 QTRAP MS (SCIEX, Framingham, Mass.). MS data were integrated using Agilent Technologies' RapidFire Integrator software, and data were normalized for analysis as a ratio of kynurenine to the internal standard. […]

| Compound | IC50 |
| --- | --- |
| CCc1ccc(C(=O)NC(CC2CCN(C(=O)OC(C)(C)C)CC2)c2ccccc2)s1 (stereo not drawn) [Example 1, tert-butyl 4-(2-(5-ethylthiophene-2-carboxamido)-2-phenylethyl)piperidine-1-carboxylate] | 7.94 nM |
| CC(C)(C)OC(=O)N1CCC(CC(NC(=O)c2ccc(Br)s2)c2ccccc2)CC1 (stereo not drawn) [Example 2, tert-butyl 4-(2-(5-bromothiophene-2-carboxamido)-2-phenylethyl)piperidine-1-carboxylate] | 7.94 nM |
| CC(C)(C)OC(=O)N1CCC(CC(NC(=O)c2ccc(Cl)s2)c2ccccc2)CC1 (stereo not drawn) [Example 3, tert-butyl 4-(2-(5-chlorothiophene-2-carboxamido)-2-phenylethyl)piperidine-1-carboxylate] | 10 nM |
| C#Cc1ccc(C(=O)NC(CC2CCN(C(=O)OC(C)(C)C)CC2)c2ccccc2)s1 (stereo not drawn) [Example 4, tert-butyl 4-(2-(5-ethynylthiophene-2-carboxamido)-2-phenylethyl)piperidine-1-carboxylate] | 3.98 nM |
| C#Cc1ccc(C(=O)NC(CC2CCN(C(=O)OC(C)(C)C)CC2)c2ccccc2)cc1 (stereo not drawn) [Example 5, tert-butyl 4-(2-(4-ethynylbenzamido)-2-phenylethyl)piperidine-1-carboxylate] | 7.94 nM |
| C#Cc1ccc(C(=O)NC(CC2CCN(C(=O)OC(C)(C)C)CC2)c2ccccc2)cc1F (stereo not drawn) [Example 6, tert-butyl 4-(2-(4-ethynyl-3-fluorobenzamido)-2-phenylethyl)piperidine-1-carboxylate] | 10 nM |
| CCOC(=O)N1CCC(CC(NC(=O)c2ccc(Cl)s2)C2CC2)CC1 (stereo not drawn) [Example 7, ethyl 4-(2-(5-chlorothiophene-2-carboxamido)-2-cyclopropylethyl)piperidine-1-carboxylate] | 6.31 nM |
| CC(C)(C)OC(=O)N1CCC(C[C@H](NC(=O)c2ccc(Cl)s2)C2CC2)CC1 [Example 8, (S)-tert-butyl 4-(2-(5-chlorothiophene-2-carboxamido)-2-cyclopropylethyl)piperidine-1-carboxylate] | 6.31 nM |
| Cc1ccc(C(=O)N[C@@H](CC2CCN(C(=O)OC(C)(C)C)CC2)C2CC2)s1 [Example 9, (S)-tert-butyl 4-(2-cyclopropyl-2-(5-methylthiophene-2-carboxamido)ethyl)piperidine-1-carboxylate] | 5.01 nM |
| CCc1ccc(C(=O)N[C@@H](CC2CCN(C(=O)OC(C)(C)C)CC2)C2CC2)s1 [Example 10, (S)-tert-butyl 4-(2-cyclopropyl-2-(5-ethylthiophene-2-carboxamido)ethyl)piperidine-1-carboxylate] | 5.01 nM |
| CCOC(=O)N1CCC(C[C@H](NC(=O)c2ccc(C)s2)C2CC2)CC1 [Example 11, (S)-ethyl 4-(2-cyclopropyl-2-(5-methylthiophene-2-carboxamido)ethyl)piperidine-1-carboxylate] | 5.01 nM |
| CCOC(=O)N1CCC(C[C@H](NC(=O)c2ccc(Cl)s2)C2CC2)CC1 [Example 12, ethyl (S)-4-(2-(5-chlorothiophene-2-carboxamido)-2-cyclopropylethyl)piperidine-1-carboxylate] | 3.16 nM |
| COC(=O)N1CCC(C[C@H](NC(=O)c2ccc(Cl)s2)C2CC2)CC1 [Example 13, (S)-methyl 4-(2-(5-chlorothiophene-2-carboxamido)-2-cyclopropylethyl)piperidine-1-carboxylate] | 7.94 nM |
| CC(C)OC(=O)N1CCC(C[C@H](NC(=O)c2ccc(Cl)s2)C2CC2)CC1 [Example 14, isopropyl (S)-4-(2-(5-chlorothiophene-2-carboxamido)-2-cyclopropylethyl)piperidine-1-carboxylate] | 3.98 nM |
| COc1ccc(C(CC2CCN(C(=O)OC(C)(C)C)CC2)NC(=O)c2ccc(Cl)s2)cn1 (stereo not drawn) [Example 15, tert-butyl 4-(2-(5-chlorothiophene-2-carboxamido)-2-(6-methoxypyridin-3-yl)ethyl)piperidine-1-carboxylate] | 3.98 nM |
| COc1ccc([C@H](CC2CCN(C(=O)OC(C)(C)C)CC2)NC(=O)c2ccc(Cl)s2)cn1 [Example 16, tert-butyl (S)-4-(2-(5-chlorothiophene-2-carboxamido)-2-(6-methoxypyridin-3-yl)ethyl)piperidine-1-carboxylate] | 0.794 nM |
| COc1ccc([C@H](CC2CCN(C(=O)OC(C)(C)C)CC2)NC(=O)c2ccc(F)cc2)cn1 [Example 17, tert-butyl (S)-4-(2-(4-fluorobenzamido)-2-(6-methoxypyridin-3-yl)ethyl)piperidine-1-carboxylate] | 7.94 nM |
| CC(C)CC(CC1CCN(C(=O)OC(C)(C)C)CC1)NC(=O)c1ccc(Cl)s1 (stereo not drawn) [Example 18, tert-butyl 4-(2-(5-chlorothiophene-2-carboxamido)-4-methylpentyl)piperidine-1-carboxylate] | 6.31 nM |
| COc1ccc([C@H](CC2CCN(C(=O)OC(C)(C)C)CC2)NC(=O)c2ccc(Cl)cc2)cn1 [Example 19, tert-butyl (S)-4-(2-(4-chlorobenzamido)-2-(6-methoxypyridin-3-yl)ethyl)piperidine-1-carboxylate] | 3.98 nM |
| COc1ccc([C@H](CC2CCN(C(=O)OC(C)(C)C)CC2)NC(=O)c2ccc(C)s2)cn1 [Example 20, tert-butyl(S)-4-(2-(6-methoxypyridin-3-yl)-2-(5-methylthiophene-2-carboxamido)ethyl)piperidine-1-carboxylate] | 2 nM |
| COc1ccc([C@H](CC2CCN(C(=O)OC(C)C)CC2)NC(=O)c2ccc(Cl)s2)cn1 [Example 21, isopropyl (S)-4-(2-(5-chlorothiophene-2-carboxamido)-2-(6-methoxypyridin-3-yl)ethyl)piperidine-1-carboxylate] | 1.58 nM |
| COc1ccc([C@H](CC2CCN(C(=O)OC(C)C)CC2)NC(=O)c2ccc(Cl)cc2)cn1 [Example 22, isopropyl (S)-4-(2-(4-chlorobenzamido)-2-(6-methoxypyridin-3-yl)ethyl)piperidine-1-carboxylate] | 2 nM |
| COc1ccc([C@H](CC2CCN(C(=O)OC(C)(C)C)CC2)NC(=O)c2ccc(Br)cc2)cn1 [Example 23, tert-butyl (S)-4-(2-(4-bromobenzamido)-2-(6-methoxypyridin-3-yl)ethyl)piperidine-1-carboxylate] | 3.98 nM |
| CCc1ccc(C(=O)N[C@@H](CC2CCN(C(=O)OC(C)(C)C)CC2)c2ccc(OC)nc2)s1 [Example 24, tert-butyl (S)-4-(2-(5-ethylthiophene-2-carboxamido)-2-(6-methoxypyridin-3-yl)ethyl)piperidine-1-carboxylate] | 3.16 nM |
| COc1ccc([C@H](CC2CCN(C(=O)OC(C)(C)C)CC2)NC(=O)c2ccc(F)s2)cn1 [Example 25, tert-butyl (S)-4-(2-(5-fluorothiophene-2-carboxamido)-2-(6-methoxypyridin-3-yl)ethyl)piperidine-1-carboxylate] | 3.16 nM |
| Cc1ccc(C(=O)NC(CC(C)C)CC2CCN(C(=O)OC(C)(C)C)CC2)s1 (stereo not drawn) [Example 26, tert-butyl 4-(4-methyl-2-(5-methylthiophene-2-carboxamido)pentyl)piperidine-1-carboxylate] | 7.94 nM |
| CC(C)CC(CC1CCN(C(=O)OC(C)(C)C)CC1)NC(=O)c1ccc(Br)cc1 (stereo not drawn) [Example 27, tert-butyl 4-(2-(4-bromobenzamido)-4-methylpentyl)piperidine-1-carboxylate] | 10 nM |
